Experimental data reported in ChEMBL document CHEMBL3885861, “Open TG-GATES”.

Species on record: Rattus norvegicus
Experiment: Open TG-GATES - Regimen: Single
Assay type: toxicity, organism-based, Sprague-Dawley
Parameters: regimen Single, gender Male, age 6 weeks
Settings: in vivo, po, 0 mg/kg, route gavage, dose level Control; for APTT / Bas / Eos / Fbg / Hb / Ht / Lym / MCH / MCHC / MCV / Mono / Neu / PT / Plat / RBC / Ret / WBC: tissue Blood; for KIDNEY_L / KIDNEY_R / KIDNEY_TOTAL: tissue Kidney; for LIVER: tissue Liver; for A/G / ALP / ALT / AST / BUN / CRE / Ca / Cl / DBIL / GLC / IP / K / LDH / Na / PL / RALB / TBIL / TC / TG / TP / gamma-GTP: tissue Plasma

CN(C)CCC(c1ccc(Cl)cc1)c1ccccn1 (configuration not stated) [CHLORPHENIRAMINE] was tested, and the TERMINAL_BW (3 h) was 198.4 g, the APTT (3 h) was 18.8 s and the Bas (3 h) was 0.2%. It also gave an Eos (3 h) of 0.8%, a Fbg (3 h) of 288.8 mg/dL and a Hb (3 h) of 12.6 g/dL. The Ht (3 h) was 39.4%, the Lym (3 h) was 77.4% and the MCH (3 h) was 20.8 pg. For the same molecule, the MCHC (3 h) was 32.1%, the MCV (3 h) was 64.9 fL and the Mono (3 h) was 2.8%. It also gave a Neu (3 h) of 18.2%, a PT (3 h) of 14.7 s and a Plat (3 h) of 109.9 x10_4/uL. For the same molecule, the RBC (3 h) was 606.2 x10_4/ul, the Ret (3 h) was 9.4% and the WBC (3 h) was 120.9 x10_2/uL. It also gave a KIDNEY_L (3 h) of 0.9 g, a KIDNEY_R (3 h) of 0.9 g and a KIDNEY_TOTAL (3 h) of 1.7 g. It also gave an LIVER (3 h) of 9.2 g, an A/G (3 h) of 0.9 and an ALP (3 h) of 1344.2 IU/L. It also gave an ALT (3 h) of 46 IU/L, an AST (3 h) of 73.6 IU/L and a BUN (3 h) of 9.2 mg/dL. It also gave a CRE (3 h) of 0.2 mg/dL, a Ca (3 h) of 10.5 mg/dL and a Cl (3 h) of 107.2 meq/L. The DBIL (3 h) was 0.008 mg/dL, the GLC (3 h) was 179 mg/dL and the IP (3 h) was 9.7 mg/dL. For the same molecule, the K (3 h) was 4.3 meq/L, the LDH (3 h) was 215.8 IU/L and the Na (3 h) was 142.8 meq/L. The PL (3 h) was 137.2 mg/dL, the RALB (3 h) was 2.5 g/dL and the TBIL (3 h) was 0.054 mg/dL. For the same molecule, the TC (3 h) was 79.8 mg/dL, the TG (3 h) was 46.6 mg/dL and the TP (3 h) was 5.3 g/dL. The gamma-GTP (3 h) was 1.4 IU/L, the TERMINAL_BW (6 h) was 196.5 g and the APTT (6 h) was 17.5 s. The Bas (6 h) was 0%, the Eos (6 h) was 0.6% and the Fbg (6 h) was 303.6 mg/dL. For the same molecule, the Hb (6 h) was 12.8 g/dL, the Ht (6 h) was 40.3% and the Lym (6 h) was 76.8%. For the same molecule, the MCH (6 h) was 20.7 pg, the MCHC (6 h) was 31.8% and the MCV (6 h) was 65.1 fL. For the same molecule, the Mono (6 h) was 3.2%, the Neu (6 h) was 18.8% and the PT (6 h) was 14.8 s. For the same molecule, the Plat (6 h) was 117.5 x10_4/uL, the RBC (6 h) was 618.2 x10_4/ul and the Ret (6 h) was 9.5%. For the same molecule, the WBC (6 h) was 82.5 x10_2/uL, the KIDNEY_L (6 h) was 0.9 g and the KIDNEY_R (6 h) was 0.9 g. For the same molecule, the KIDNEY_TOTAL (6 h) was 1.7 g, the LIVER (6 h) was 8.7 g and the A/G (6 h) was 0.9. For the same molecule, the ALP (6 h) was 1456.6 IU/L, the ALT (6 h) was 44.8 IU/L and the AST (6 h) was 76.2 IU/L. The BUN (6 h) was 10.2 mg/dL, the CRE (6 h) was 0.2 mg/dL and the Ca (6 h) was 10.8 mg/dL. It also gave a Cl (6 h) of 106.6 meq/L, a DBIL (6 h) of 0.008 mg/dL and a GLC (6 h) of 190.6 mg/dL. It also gave an IP (6 h) of 10.7 mg/dL, a K (6 h) of 4.2 meq/L and an LDH (6 h) of 140.2 IU/L. For the same molecule, the Na (6 h) was 143 meq/L, the PL (6 h) was 135.2 mg/dL and the RALB (6 h) was 2.5 g/dL. For the same molecule, the TBIL (6 h) was 0.05 mg/dL, the TC (6 h) was 81 mg/dL and the TG (6 h) was 49.2 mg/dL. For the same molecule, the TP (6 h) was 5.4 g/dL, the gamma-GTP (6 h) was 1.2 IU/L and the TERMINAL_BW (9 h) was 193.9 g. For the same molecule, the APTT (9 h) was 19.1 s, the Bas (9 h) was 0% and the Eos (9 h) was 0.8%. The Fbg (9 h) was 294.4 mg/dL, the Hb (9 h) was 12.7 g/dL and the Ht (9 h) was 39.4%. The Lym (9 h) was 75.6%, the MCH (9 h) was 21.6 pg and the MCHC (9 h) was 32.2%. The MCV (9 h) was 67.1 fL, the Mono (9 h) was 2.8% and the Neu (9 h) was 19.8%. The PT (9 h) was 15 s, the Plat (9 h) was 107.8 x10_4/uL and the RBC (9 h) was 587.6 x10_4/ul. It also gave a Ret (9 h) of 9.5%, a WBC (9 h) of 66.4 x10_2/uL and a KIDNEY_L (9 h) of 0.9 g. It also gave a KIDNEY_R (9 h) of 0.9 g, a KIDNEY_TOTAL (9 h) of 1.7 g and an LIVER (9 h) of 7.7 g. The A/G (9 h) was 0.9, the ALP (9 h) was 1415.8 IU/L and the ALT (9 h) was 38.6 IU/L. For the same molecule, the AST (9 h) was 73.8 IU/L, the BUN (9 h) was 8.2 mg/dL and the CRE (9 h) was 0.1 mg/dL. It also gave a Ca (9 h) of 10.2 mg/dL, a Cl (9 h) of 106.6 meq/L and a DBIL (9 h) of 0.008 mg/dL. It also gave a GLC (9 h) of 161.6 mg/dL, an IP (9 h) of 10.7 mg/dL and a K (9 h) of 4 meq/L. The LDH (9 h) was 116.2 IU/L, the Na (9 h) was 143.8 meq/L and the PL (9 h) was 131.6 mg/dL. For the same molecule, the RALB (9 h) was 2.5 g/dL, the TBIL (9 h) was 0.054 mg/dL and the TC (9 h) was 76.2 mg/dL. The TG (9 h) was 39.4 mg/dL, the TP (9 h) was 5.4 g/dL and the gamma-GTP (9 h) was 1.2 IU/L. The TERMINAL_BW (24 h) was 212.2 g, the APTT (24 h) was 19.7 s and the Bas (24 h) was 0%. It also gave an Eos (24 h) of 1%, a Fbg (24 h) of 292.6 mg/dL and a Hb (24 h) of 13.3 g/dL. The Ht (24 h) was 41.2%, the Lym (24 h) was 80.6% and the MCH (24 h) was 21.2 pg. The MCHC (24 h) was 32.2%, the MCV (24 h) was 66 fL and the Mono (24 h) was 3.6%. It also gave a Neu (24 h) of 14.2%, a PT (24 h) of 14.7 s and a Plat (24 h) of 116.5 x10_4/uL. For the same molecule, the RBC (24 h) was 624.8 x10_4/ul, the Ret (24 h) was 8.4% and the WBC (24 h) was 75.5 x10_2/uL. For the same molecule, the KIDNEY_L (24 h) was 0.9 g, the KIDNEY_R (24 h) was 0.9 g and the KIDNEY_TOTAL (24 h) was 1.8 g. It also gave an LIVER (24 h) of 10 g, an A/G (24 h) of 0.8 and an ALP (24 h) of 1528.4 IU/L. It also gave an ALT (24 h) of 46 IU/L, an AST (24 h) of 70.2 IU/L and a BUN (24 h) of 14.6 mg/dL. For the same molecule, the CRE (24 h) was 0.2 mg/dL, the Ca (24 h) was 11 mg/dL and the Cl (24 h) was 106.4 meq/L. The DBIL (24 h) was 0.012 mg/dL, the GLC (24 h) was 190.6 mg/dL and the IP (24 h) was 8.8 mg/dL. It also gave a K (24 h) of 4.3 meq/L, an LDH (24 h) of 94.4 IU/L and a Na (24 h) of 143 meq/L. It also gave a PL (24 h) of 156.8 mg/dL, an RALB (24 h) of 2.7 g/dL and a TBIL (24 h) of 0.04 mg/dL. For the same molecule, the TC (24 h) was 85 mg/dL, the TG (24 h) was 86 mg/dL and the TP (24 h) was 5.8 g/dL. The gamma-GTP (24 h) was 1.4 IU/L.
